Test [1] deals with T1, BACE1 (Homo sapiens (Human), UniProt P56817). Kind of test: In vitro enzymatic BACE1 FRET assay. In kind it is biochemical. The following applies: read-out: BACE1 Enzyme IC50.
Target sequence in this assay (P56817 46-501): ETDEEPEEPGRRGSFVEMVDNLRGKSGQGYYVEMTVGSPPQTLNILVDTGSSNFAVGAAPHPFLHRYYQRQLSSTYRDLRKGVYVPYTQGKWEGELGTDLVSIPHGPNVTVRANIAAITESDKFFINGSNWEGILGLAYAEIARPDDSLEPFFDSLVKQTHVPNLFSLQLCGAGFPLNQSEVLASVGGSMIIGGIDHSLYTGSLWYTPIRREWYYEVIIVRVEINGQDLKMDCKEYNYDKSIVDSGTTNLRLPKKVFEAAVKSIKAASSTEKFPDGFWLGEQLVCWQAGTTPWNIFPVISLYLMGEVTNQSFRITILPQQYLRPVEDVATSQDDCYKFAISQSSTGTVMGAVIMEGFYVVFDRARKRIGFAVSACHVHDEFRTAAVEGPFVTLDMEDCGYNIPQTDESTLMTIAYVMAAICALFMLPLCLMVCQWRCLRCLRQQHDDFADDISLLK
In a further test the target is Cathepsin D (CatD) (Homo sapiens (Human), UniProt P07339). Put plainly: In vitro enzymatic Cathepsin D (CatD) FRET assay. In kind it is biochemical. To be noted: read-out: Cat D Enzyme IC50.
Test [2] deals with T1, BACE1. Put plainly: In vitro BACE1 cell-based assay (Aβ40 in conditioned medium of cells stably expressing APP, HTRF). The following applies: Aβ40 in conditioned media after 24 h incubation. On the technique in general: Time-resolved FRET reads energy transfer from a long-lived donor to a nearby acceptor.
Target sequence in this assay (P56817 46-501, species assumed): as the sequence (P56817 46-501) above
For a further test, the target named is human recombinant BACE2 (Homo sapiens (Human), UniProt Q9Y5Z0). Kind of test: In vitro enzymatic BACE2 FRET assay. In kind it is biochemical. To be noted: read-out: BACE2 Enzyme IC50.

This passage reports IC50 results from patent US11021493B2, “1,4-thiazine dioxide and 1,2,4-thiadiazine dioxide derivatives as beta-secretase inhibitors and methods of use” (AMGEN INC., priority 2016, dated 2021).

Cathepsin D (CatD), sequence (P07339 65-412, species assumed): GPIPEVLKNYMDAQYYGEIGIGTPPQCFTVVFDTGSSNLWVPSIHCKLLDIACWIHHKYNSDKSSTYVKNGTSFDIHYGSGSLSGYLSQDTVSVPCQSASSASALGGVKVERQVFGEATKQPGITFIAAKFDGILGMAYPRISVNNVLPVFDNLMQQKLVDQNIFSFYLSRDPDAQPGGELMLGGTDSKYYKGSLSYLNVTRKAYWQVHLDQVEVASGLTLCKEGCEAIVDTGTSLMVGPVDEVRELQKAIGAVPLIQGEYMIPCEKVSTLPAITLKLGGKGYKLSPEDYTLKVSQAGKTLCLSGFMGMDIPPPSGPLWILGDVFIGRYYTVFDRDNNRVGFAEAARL
human recombinant BACE2, sequence (Q9Y5Z0 63-518): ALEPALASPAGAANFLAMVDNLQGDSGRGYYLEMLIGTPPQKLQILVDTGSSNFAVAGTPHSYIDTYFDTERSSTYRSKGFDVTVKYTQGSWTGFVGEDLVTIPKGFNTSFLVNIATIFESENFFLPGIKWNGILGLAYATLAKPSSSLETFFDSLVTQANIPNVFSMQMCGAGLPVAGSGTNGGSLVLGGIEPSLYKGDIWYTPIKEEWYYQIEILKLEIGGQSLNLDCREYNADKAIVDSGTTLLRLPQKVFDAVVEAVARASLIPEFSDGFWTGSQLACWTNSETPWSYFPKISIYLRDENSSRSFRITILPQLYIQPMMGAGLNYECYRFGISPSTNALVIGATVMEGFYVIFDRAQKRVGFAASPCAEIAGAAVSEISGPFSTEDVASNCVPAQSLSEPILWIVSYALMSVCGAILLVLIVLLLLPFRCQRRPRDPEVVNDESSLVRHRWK

A word on the IC50: it is the midpoint of a concentration-inhibition curve. Take `C[C@@]1(c2cc(/C=C(\F)c3ccc(C#N)cn3)ccc2F)CS(=O)(=O)C2(CCC2)C(N)=N1` [Example 103, (R,Z)-6-(2-(3-(9-amino-7-methyl-5,5-dioxido-5-thia-8-azaspiro[3.5]non-8-en-7-yl)-4-fluorophenyl)-1-fluorovinyl)nicotinonitrile]: the IC50 at BACE1 [1] was 3 nM; at Cathepsin D (CatD) it was 94700 nM; against BACE1 [2], 39 nM; on human recombinant BACE2, 50 nM.
For the compound `COC(C)COc1cnc(/C(F)=C/c2ccc(F)c([C@@]3(C)N=C(N)[C@@]4(CF)CC[C@@H]3S4(=O)=O)c2)cn1` (stereo partly drawn) [Example 136, (1R,4R,5S)-2-amino-4-(2-fluoro-5-((Z)-2-fluoro-2-(5-(2-methoxypropoxy)pyrazin-2-yl)vinyl)phenyl)-1-(fluoromethyl)-4-methyl-8-thia-3-azabicyclo[3.2.1]oct-2-ene 8,8-dioxide], the IC50 at BACE1 [1] is 51 nM; on Cathepsin D (CatD), 78200 nM; against BACE1 [2] it was 218 nM; on human recombinant BACE2, 315 nM.
On to `C[C@]1(c2cc(/C=C(\F)c3cnc(OCC(F)F)cn3)ccc2F)N=C(N)[C@@]2(CF)CC[C@@H]1S2(=O)=O` [Example 134, (1R,4R,5S)-2-amino-4-(5-((Z)-2-(5-(2,2-difluoroethoxy)pyrazin-2-yl)-2-fluorovinyl)-2-fluorophenyl)-1-(fluoromethyl)-4-methyl-8-thia-3-azabicyclo[3.2.1]oct-2-ene 8,8-dioxide], for which the IC50 on BACE1 [1] is 101 nM; on Cathepsin D (CatD) it was 196000 nM; against BACE1 [2] it was 318 nM; at human recombinant BACE2, 123 nM.
`CC1(C)C(N)=N[C@](C)(c2cc(/C=C(\F)c3ccc(C#N)cn3)cnc2F)CS1(=O)=O` [Example 197, (R,Z)-6-(2-(5-(5-amino-3,6,6-trimethyl-1,1-dioxido-3,6-dihydro-2H-1,4-thiazin-3-yl)-6-fluoropyridin-3-yl)-1-fluorovinyl)nicotinonitrile]: the IC50 was 33 nM on BACE1 [1], 81300 nM on Cathepsin D (CatD), 52 nM against BACE1 [2] and 87 nM on human recombinant BACE2.
The corresponding values for `CCOc1cnc(/C(F)=C/c2ccc(F)c([C@@]3(C)N=C(N)[C@@]4(CF)CC[C@@H]3S4(=O)=O)c2)cn1` [Example 122, (1R,4R,5S)-2-amino-4-(5-((Z)-2-(5-ethoxypyrazin-2-yl)-2-fluorovinyl)-2-fluorophenyl)-1-(fluoromethyl)-4-methyl-8-thia-3-azabicyclo[3.2.1]oct-2-ene 8,8-dioxide] are 54 nM, greater than 400000 nM, 527 nM and 194 nM.
The corresponding values for `C[C@]1(c2cc(/C=C(\F)c3cnc(OCC4CCC4)cn3)ccc2F)N=C(N)[C@@]2(CF)CC[C@@H]1S2(=O)=O` [Example 132, (1R,4R,5S)-2-amino-4-(5-((Z)-2-(5-(cyclobutylmethoxy)pyrazin-2-yl)-2-fluorovinyl)-2-fluorophenyl)-1-(fluoromethyl)-4-methyl-8-thia-3-azabicyclo[3.2.1]oct-2-ene 8,8-dioxide] are 38 nM, greater than 400000 nM, 1960 nM and 217 nM.
The matching figures for `CC1(C)C(N)=N[C@](C)(c2cc(/C=C/c3ccc(Cl)cc3)ccc2F)CS1(=O)=O` [Example 279, (R,E)-5-amino-3-(5-(4-chlorostyryl)-2-fluorophenyl)-3,6,6-trimethyl-3,6-dihydro-2H-1,4-thiazine 1,1-dioxide]: 56 nM, 39300 nM, 442 nM and 56 nM.
Consider `CN1C(N)=N[C@](C)(c2cc(/C=C(\F)c3cc(C#N)c(Cl)cn3)ccc2F)CS1(=O)=O` [Example 231, (R,Z)-2-(2-(3-(3-amino-2,5-dimethyl-1,1-dioxido-5,6-dihydro-2H-1,2,4-thiadiazin-5-yl)-4-fluorophenyl)-1-fluorovinyl)-5-chloroisonicotinonitrile], for which the IC50 at BACE1 [1] was 84 nM; on Cathepsin D (CatD), greater than 4940 nM; on BACE1 [2] it was 97 nM; on human recombinant BACE2 it was 94 nM.
For the compound `CC1(C)C(N)=N[C@](C)(c2cc(/C=C(\F)c3ccc(F)cn3)ccc2F)CS1(=O)=O` [Example 262, (R,Z)-5-amino-3-(2-fluoro-5-(2-fluoro-2-(5-fluoropyridin-2-yl)vinyl)phenyl)-3,6,6-trimethyl-3,6-dihydro-2H-1,4-thiazine 1,1-dioxide], the IC50 at BACE1 [1] amounted to 47 nM; at Cathepsin D (CatD), 108000 nM; on BACE1 [2], 180 nM; on human recombinant BACE2 it was 11 nM.
Turning to `CC1(C)C(N)=N[C@](C)(c2cc(/C=C(\F)c3cnc(OCCn4ccnc4)cn3)ccc2F)CS1(=O)=O` [Example 155, (R,Z)-3-(5-(2-(5-(2-(1H-imidazol-1-yl)ethoxy)pyrazin-2-yl)-2-fluorovinyl)-2-fluorophenyl)-5-amino-3,6,6-trimethyl-3,6-dihydro-2H-1,4-thiazine 1,1-dioxide], the IC50 came to 5140 nM on BACE1 [1], 440000 nM at Cathepsin D (CatD), 985 nM on BACE1 [2] and 2390 nM at human recombinant BACE2.
With `COc1cc(/C(F)=C/c2ccc(F)c([C@]3(C)CS(=O)(=O)N(C)C(N)=N3)c2)ncc1Cl` [Example 230, (R,Z)-3-amino-5-(5-(2-(5-chloro-4-methoxypyridin-2-yl)-2-fluorovinyl)-2-fluorophenyl)-2,5-dimethyl-5,6-dihydro-2H-1,2,4-thiadiazine 1,1-dioxide], the IC50 on BACE1 [1] worked out at 179 nM; on Cathepsin D (CatD) it was 111000 nM; against BACE1 [2] it was 656 nM; at human recombinant BACE2, 24 nM.
As to `CC#CCOc1cnc(/C(F)=C/c2ccc(F)c([C@]3(CF)CS(=O)(=O)C(C)(C)C(N)=N3)c2)cn1` [Example 194, (S,Z)-5-amino-3-(5-(2-(5-(but-2-yn-1-yloxy)pyrazin-2-yl)-2-fluorovinyl)-2-fluorophenyl)-3-(fluoromethyl)-6,6-dimethyl-3,6-dihydro-2H-1,4-thiazine 1,1-dioxide], the IC50 at BACE1 [1] worked out at 7 nM; on Cathepsin D (CatD) it was 49400 nM; against BACE1 [2], 55 nM; at human recombinant BACE2 it was 181 nM.
The corresponding values for `CC1(C)C(N)=N[C@](C)(c2cc(/C=C(\F)c3cnc(OCCn4cccn4)cn3)ccc2F)CS1(=O)=O` [Example 157, (R,Z)-3-(5-(2-(5-(2-(1H-pyrazol-1-yl)ethoxy)pyrazin-2-yl)-2-fluorovinyl)-2-fluorophenyl)-5-amino-3,6,6-trimethyl-3,6-dihydro-2H-1,4-thiazine 1,1-dioxide] are 187 nM, 57500 nM, 181 nM and 478 nM.
The corresponding values for `CC1(C)C(N)=N[C@](C)(c2cc(/C=C(\F)c3cc4c(cn3)OCCO4)ccc2F)[C@@H](F)S1(=O)=O` (single isomer, unassigned) [Example 213] are 626 nM, 172000 nM, 3580 nM and 683 nM.
The matching figures for `CN1C(N)=N[C@](C)(c2cc(/C=C(\F)c3ccc(C#N)cn3)ccc2F)C(C)(C)S1(=O)=O` [Example 180, (R,Z)-6-(2-(3-(3-amino-2,5,6,6-tetramethyl-1,1-dioxido-5,6-dihydro-2H-1,2,4-thiadiazin-5-yl)-4-fluorophenyl)-1-fluorovinyl)nicotinonitrile]: 7 nM, 93700 nM, 26 nM and 75 nM.
Take `CC1(C)C(N)=N[C@](C)(c2cc(/C=C(\F)c3cnc(Cl)cn3)ccc2F)C(F)(F)S1(=O)=O` [Example 191, (R,Z)-5-amino-3-(5-(2-(5-chloropyrazin-2-yl)-2-fluorovinyl)-2-fluorophenyl)-2,2-difluoro-3,6,6-trimethyl-3,6-dihydro-2H-1,4-thiazine 1,1-dioxide]: the IC50 at BACE1 [1] was 128 nM; at Cathepsin D (CatD), 62200 nM; against BACE1 [2] it was 5090 nM; on human recombinant BACE2, 52 nM.
Take `Cc1cc(C#N)cnc1/C(F)=C/c1ccc(F)c([C@]2(C)CS(=O)(=O)C(C)(C)C(N)=N2)c1` [Example 274, (R,Z)-6-(2-(3-(5-amino-3,6,6-trimethyl-1,1-dioxido-3,6-dihydro-2H-1,4-thiazin-3-yl)-4-fluorophenyl)-1-fluorovinyl)-5-methylnicotinonitrile]: the IC50 was found to be 6 nM on BACE1 [1], 122000 nM at Cathepsin D (CatD), 51 nM against BACE1 [2] and 28 nM at human recombinant BACE2.
The corresponding values for `C[C@]1(c2cc(/C=C(\F)c3cnc(OCC(F)(F)F)cn3)ccc2F)N=C(N)[C@@]2(CF)CC[C@@H]1S2(=O)=O` [Example 109, (1R,4R,5S)-2-amino-4-(2-fluoro-5-((Z)-2-fluoro-2-(5-(2,2,2-trifluoroethoxy)pyrazin-2-yl)vinyl)phenyl)-1-(fluoromethyl)-4-methyl-8-thia-3-azabicyclo[3.2.1]oct-2-ene 8,8-dioxide] are 28 nM, 135000 nM, 227 nM and 167 nM.
The corresponding values for `CN1C(N)=N[C@](C)(c2cc(/C=C(\F)c3ccc(F)cn3)cc(F)c2F)CS1(=O)=O` [Example 270, (R,Z)-3-amino-5-(2,3-difluoro-5-(2-fluoro-2-(5-fluoropyridin-2-yl)vinyl)phenyl)-2,5-dimethyl-5,6-dihydro-2H-1,2,4-thiadiazine 1,1-dioxide] are 75 nM, 265000 nM, 138 nM and 28 nM.
In the case of `Cc1nnc(COc2cnc(/C(F)=C/c3ccc(F)c([C@]4(C)CS(=O)(=O)C(C)(C)C(N)=N4)c3)cn2)o1` [Example 176, (R,Z)-5-amino-3-(2-fluoro-5-(2-fluoro-2-(5-((5-methyl-1,3,4-oxadiazol-2-yl)methoxy)pyrazin-2-yl)vinyl)phenyl)-3,6,6-trimethyl-3,6-dihydro-2H-1,4-thiazine 1,1-dioxide], the IC50 at BACE1 [1] turned out to be 111 nM; on Cathepsin D (CatD) it was 148000 nM; at BACE1 [2], 56 nM; on human recombinant BACE2, 409 nM.
